Data on eight compounds can be found in patent US8962596B2 (Array BioPharma Inc., priority 2010, dated 2015).

Format in all cases: biochemical
One experiment addresses T1, JAK3 (Homo sapiens, UniProt P52333).
T1 construct: purchased Invitrogen Corporation, Carlsbad, Calif; PV4080
T1 sequence (P52333 1-1124): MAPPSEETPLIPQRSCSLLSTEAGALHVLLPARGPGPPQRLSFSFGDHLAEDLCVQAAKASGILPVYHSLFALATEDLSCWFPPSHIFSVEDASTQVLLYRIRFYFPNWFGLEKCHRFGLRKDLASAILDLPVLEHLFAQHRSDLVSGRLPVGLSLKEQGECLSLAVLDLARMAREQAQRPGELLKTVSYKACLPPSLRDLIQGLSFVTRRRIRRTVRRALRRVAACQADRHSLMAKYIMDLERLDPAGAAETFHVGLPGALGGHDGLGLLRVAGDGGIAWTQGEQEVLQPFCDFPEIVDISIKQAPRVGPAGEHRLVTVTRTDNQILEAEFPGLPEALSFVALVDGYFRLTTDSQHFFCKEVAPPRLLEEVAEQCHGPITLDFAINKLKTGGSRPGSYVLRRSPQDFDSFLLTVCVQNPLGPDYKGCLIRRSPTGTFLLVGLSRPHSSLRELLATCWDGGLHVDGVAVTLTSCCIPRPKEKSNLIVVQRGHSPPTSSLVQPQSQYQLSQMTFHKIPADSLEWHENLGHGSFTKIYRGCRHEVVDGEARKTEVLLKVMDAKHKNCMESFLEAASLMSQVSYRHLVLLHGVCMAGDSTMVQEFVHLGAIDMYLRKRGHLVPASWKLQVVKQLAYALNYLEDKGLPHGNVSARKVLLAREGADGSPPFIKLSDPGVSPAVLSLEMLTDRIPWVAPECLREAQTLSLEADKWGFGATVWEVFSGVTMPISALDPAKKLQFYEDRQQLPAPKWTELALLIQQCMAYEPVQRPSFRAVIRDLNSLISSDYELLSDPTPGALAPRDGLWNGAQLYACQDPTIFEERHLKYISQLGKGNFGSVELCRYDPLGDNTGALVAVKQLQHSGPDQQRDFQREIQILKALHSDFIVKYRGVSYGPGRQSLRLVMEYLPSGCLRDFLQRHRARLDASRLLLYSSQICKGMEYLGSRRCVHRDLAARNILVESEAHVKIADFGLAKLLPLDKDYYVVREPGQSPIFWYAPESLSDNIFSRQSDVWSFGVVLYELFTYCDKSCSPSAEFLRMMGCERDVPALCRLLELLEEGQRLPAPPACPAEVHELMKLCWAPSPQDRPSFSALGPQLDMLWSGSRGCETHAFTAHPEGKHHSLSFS
The experiment in a line: JAK3 Inhibition Assay (Omnia kinase fluorescence peptide substrate assay). The note with it: averaged IC50 ranges; assay of Example D; 10 μM (Km app) or 1 mM ATP, 2.5 nM JAK3. From the text:
(§1) The assays described in Examples A, B, C and D for the determination of Tyk2, JAK1, JAK2 and JAK3 kinase activity, respectively, utilized the Omnia® Kinase fluorescence peptide substrate-based technology (Invitrogen). The specific components of the assay mixture are described in Examples A, B, C and D. In these assays, Mg^2+ is chelated upon phosphorylation of the Omnia peptide by the kinase to form a bridge between the chelation-enhanced fluorophore Sox and the phosphate, resulting in an increase in fluorescence emission at 485 nm when excited at […]. The reactions were therefore read at excitation 360 nm and emission was measured at 485 nm every 50 seconds for 45 minutes using a PerkinElmer EnVision Multilabel Plate Reader.
(§2) The final buffer conditions for Tyk2, JAK1, JAK2, and JAK3 assays were as follows: 25 mM HEPES, pH 7.4, 10 mM MgCl2, 0.01% Triton X-100 and 1 mM DTT.
(§3) Compounds were prepared at 50× the final concentration in DMSO by conducting 3-fold serial dilutions from a 500-μM intermediate dilution to give a 10-point dosing curve having a high dose of 10 μM. Two-μL aliquots of these were transferred to a fresh plate for a ten-fold intermediate dilution with assay buffer. Five-μL aliquots of the diluted compounds were then transferred to 20-μL of assay mixtures described in Examples A, B, C and D for a final concentration of DMSO of 2%. A standard or reference compound was typically included on each assay plate to validate that plate. For each plate, percent of control (POC) values were calculated for each well according to the following equation:
(§4) where Xmax=Average Uninhibited Controls • Xmin=Average Background IC50's were estimated from the POC's using a standard 4-parameter logistic model:
(§5) where • A=Minimum Y (Bottom Asymptote) • B=Maximum Y (Top Asymptote) • C=EC50 • D=Slope Factor • X=Compound Concentration (nM) • Y=POC
(§6) The IC50 is defined as the concentration of inhibitor at which the POC equals 50 for the fitted curve.
Compounds of Formula I were screened for their ability to inhibit JAK3 using the general enzyme inhibition assay method, in which the assay mixture contained 10 μM (Km app) or 1 mM ATP, 10 μM Omnia® Y7 peptide (Catalog #IVGN KNZ3071C, Invitrogen Corporation, Carlsbad, Calif.) and 2.5 nM JAK3 in a total volume of 20 μL. JAK3 was purchased from Invitrogen Corporation, Carlsbad, Calif. (catalog #IVGN PV4080).

Another experiment has as its target T2, JAK1 (Homo sapiens, UniProt P23458).
T2 construct: purchased Invitrogen Corporation, Carlsbad, Calif; PV4775
The experiment in a line: JAK1 Inhibition Assay (Omnia kinase fluorescence peptide substrate assay). Conditions: averaged IC50 ranges; assay of Example B; 40 μM (Km app) or 1 mM ATP, 15 nM JAK1.
From the text: as §1, §2, §3, §4, §5, §6
Compounds of Formula I were screened for their ability to inhibit JAK1 using the general enzyme inhibition assay method, in which the assay mixture contained 40 μM (Km app) or 1 mM ATP, 8 μM Omnia® Y12 peptide (Catalog #IVGN KPZ3121C; Invitrogen Corporation, Carlsbad, Calif.) and 15 nM JAK1 in a total volume of 20 μL. JAK1 was purchased from Invitrogen Corporation, Carlsbad, Calif. (catalog #IVGN PV4775).

The target of a further experiment is T3, Human Tyk2 kinase domain (Homo sapiens, UniProt P29597).
T3 construct: comprising amino acids 886 to 1187 with 10 additional histidine residues; 10xHis (histidine tag) (C, cleaved yes); made in house
T3 sequence (P29597 886-1187): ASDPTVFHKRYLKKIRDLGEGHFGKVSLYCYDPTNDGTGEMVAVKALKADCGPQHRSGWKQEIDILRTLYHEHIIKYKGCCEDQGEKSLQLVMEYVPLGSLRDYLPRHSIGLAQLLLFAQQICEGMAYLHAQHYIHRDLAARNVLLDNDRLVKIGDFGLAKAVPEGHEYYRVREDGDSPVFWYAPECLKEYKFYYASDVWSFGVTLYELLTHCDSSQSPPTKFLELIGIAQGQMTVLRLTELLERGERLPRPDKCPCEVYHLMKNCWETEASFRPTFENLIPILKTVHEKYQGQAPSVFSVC
The experiment in a line: Tyk2 Inhibition Assay (Omnia kinase fluorescence peptide substrate assay). The note with it: averaged IC50 ranges; assay of Example A; 10 μM (Km app) or 1 mM ATP, 2 nM Tyk2.
From the text: as §1, §2, §3, §4, §5, §6
Compounds of Formula I were screened for their ability to inhibit Tyk2 using the general enzyme inhibition assay method, in which the assay mixture contained 10 μM (Km app) or 1 mM ATP, 8 μM Omnia® Y12 peptide (Catalog #IVGN KPZ3121C; Invitrogen Corporation, Carlsbad, Calif.) and 2 nM Tyk2 in a total volume of 20 μL. Human Tyk2 kinase domain, comprising amino acids 886 to 1187 with 10 additional histidine residues (histidine tag) on the carboxy terminus, was expressed and purified from bacculovirus in-house at Array BioPharma Inc. (Boulder, Colo.). The histidine tag was cleaved after purification using standard conditions.

In a further experiment the target is T4, JAK2 (Homo sapiens, UniProt O60674).
T4 construct: purchased Invitrogen Corporation, Carlsbad, Calif; PV4288
T4 sequence (O60674 whole entry): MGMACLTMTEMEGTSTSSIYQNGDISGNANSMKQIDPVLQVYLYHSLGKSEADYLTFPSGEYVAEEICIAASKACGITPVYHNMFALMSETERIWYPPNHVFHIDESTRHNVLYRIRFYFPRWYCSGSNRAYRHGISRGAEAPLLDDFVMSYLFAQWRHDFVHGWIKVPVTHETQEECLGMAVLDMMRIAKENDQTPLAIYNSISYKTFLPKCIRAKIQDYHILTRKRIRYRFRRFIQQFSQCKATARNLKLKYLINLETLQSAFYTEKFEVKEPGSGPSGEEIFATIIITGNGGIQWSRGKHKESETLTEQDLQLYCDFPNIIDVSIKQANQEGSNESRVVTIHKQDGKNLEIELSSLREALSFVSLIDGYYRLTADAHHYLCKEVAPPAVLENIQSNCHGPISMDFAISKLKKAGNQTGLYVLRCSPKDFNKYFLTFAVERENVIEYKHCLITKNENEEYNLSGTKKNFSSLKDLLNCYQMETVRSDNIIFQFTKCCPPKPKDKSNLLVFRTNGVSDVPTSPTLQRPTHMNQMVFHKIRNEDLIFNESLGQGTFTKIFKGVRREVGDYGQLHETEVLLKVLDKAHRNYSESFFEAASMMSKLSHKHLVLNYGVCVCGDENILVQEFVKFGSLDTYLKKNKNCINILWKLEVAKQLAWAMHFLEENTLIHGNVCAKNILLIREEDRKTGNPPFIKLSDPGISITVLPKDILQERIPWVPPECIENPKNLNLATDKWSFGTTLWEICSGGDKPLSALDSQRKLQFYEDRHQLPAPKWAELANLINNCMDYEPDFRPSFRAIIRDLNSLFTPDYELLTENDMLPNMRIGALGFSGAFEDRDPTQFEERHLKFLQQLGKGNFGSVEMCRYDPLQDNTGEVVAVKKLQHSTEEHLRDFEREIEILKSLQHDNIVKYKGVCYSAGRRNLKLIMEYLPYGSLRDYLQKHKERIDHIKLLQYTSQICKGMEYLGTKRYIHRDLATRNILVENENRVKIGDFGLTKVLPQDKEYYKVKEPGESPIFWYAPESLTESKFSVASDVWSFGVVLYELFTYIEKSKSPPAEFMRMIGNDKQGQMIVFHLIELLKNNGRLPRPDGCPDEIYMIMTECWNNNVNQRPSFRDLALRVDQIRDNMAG
The experiment in a line: JAK2 Inhibition Assay (Omnia kinase fluorescence peptide substrate assay). The note with it: averaged IC50 ranges; assay of Example C; 25 μM (Km app) or 1 mM ATP, 5 nM JAK2.
From the text: as §1, §2, §3, §4, §5, §6
Compounds of Formula I were screened for their ability to inhibit JAK2 using the general enzyme inhibition assay method, in which the assay mixture contained 25 μM (Km app) or 1 mM ATP, 10 μM Omnia® Y7 peptide (Catalog #IVGN KNZ3071C, Invitrogen Corporation, Carlsbad, Calif.) and 5 nM JAK2 in a total volume of 20 μL. JAK2 was purchased from Invitrogen Corporation, Carlsbad, Calif. (catalog #IVGN PV4288).

T2 sequence (P23458 whole entry): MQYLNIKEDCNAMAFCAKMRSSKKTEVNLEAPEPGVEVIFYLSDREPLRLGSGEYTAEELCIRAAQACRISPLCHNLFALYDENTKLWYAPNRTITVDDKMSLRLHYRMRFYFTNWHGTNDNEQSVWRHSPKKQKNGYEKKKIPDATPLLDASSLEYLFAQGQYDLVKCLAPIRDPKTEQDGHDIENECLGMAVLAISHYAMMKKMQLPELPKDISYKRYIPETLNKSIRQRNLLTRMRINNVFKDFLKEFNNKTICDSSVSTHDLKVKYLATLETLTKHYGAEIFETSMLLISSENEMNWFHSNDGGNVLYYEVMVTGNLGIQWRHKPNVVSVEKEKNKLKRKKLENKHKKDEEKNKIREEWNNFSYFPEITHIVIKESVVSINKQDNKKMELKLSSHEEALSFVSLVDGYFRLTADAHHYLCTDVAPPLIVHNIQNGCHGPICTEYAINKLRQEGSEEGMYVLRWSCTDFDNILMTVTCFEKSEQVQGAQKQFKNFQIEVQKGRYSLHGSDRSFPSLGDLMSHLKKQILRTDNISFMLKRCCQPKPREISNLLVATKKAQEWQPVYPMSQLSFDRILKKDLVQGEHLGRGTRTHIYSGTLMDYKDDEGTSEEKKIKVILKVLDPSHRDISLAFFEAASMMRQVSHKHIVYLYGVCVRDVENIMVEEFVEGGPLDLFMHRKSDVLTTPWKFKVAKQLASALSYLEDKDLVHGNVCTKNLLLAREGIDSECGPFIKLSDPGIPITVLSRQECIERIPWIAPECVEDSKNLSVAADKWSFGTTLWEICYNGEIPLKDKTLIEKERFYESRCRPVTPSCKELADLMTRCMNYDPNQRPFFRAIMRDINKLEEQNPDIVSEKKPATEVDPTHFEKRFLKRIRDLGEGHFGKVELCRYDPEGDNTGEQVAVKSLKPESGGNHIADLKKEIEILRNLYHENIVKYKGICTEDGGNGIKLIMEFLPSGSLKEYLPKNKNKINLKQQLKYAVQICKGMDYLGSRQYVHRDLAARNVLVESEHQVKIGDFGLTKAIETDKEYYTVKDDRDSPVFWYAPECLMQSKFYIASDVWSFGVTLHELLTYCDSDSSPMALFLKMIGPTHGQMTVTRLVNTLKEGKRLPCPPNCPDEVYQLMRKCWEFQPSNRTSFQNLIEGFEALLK

For the compound `Cn1cc(-c2cc3nccn3c(-c3cnn(C(CC#N)C4CC4(F)F)c3)n2)cn1` (mixture of isomers) [Example 147, 3-(2,2-difluorocyclopropyl)-3-(4-(7-(1-methyl-1H-pyrazol-4-yl)imidazo[1,2-c]pyrimidin-5-yl)-1H-pyrazol-1-yl)propanenitrile], the IC50 (commonly the concentration that inhibits the measured activity by half) against JAK3 was 0.1 to 1 µM; at JAK1, 0.01 to 0.1 µM; against Human Tyk2 kinase domain, under 0.01 µM; against JAK2 it was 0.01 to 0.1 µM.
As for `CN1CCC(c2ccc(-c3cc4nccn4c(-c4cnn(C(CC#N)C5CCCC5)c4)n3)cc2)CC1` (single isomer, unassigned) [Example 111, 3-cyclopentyl-3-(4-(7-(4-(1-methylpiperidin-4-yl)phenyl)imidazo[1,2-c]pyrimidin-5-yl)-1H-pyrazol-1-yl)propanenitrile], the IC50 against JAK3 was in the range of 0.1 to 1 µM; on JAK1, 0.1 to 1 µM; at Human Tyk2 kinase domain it was 0.01 to 0.1 µM; against JAK2, 0.1 to 1 µM.
Consider `CN1CCC(c2ccc(-c3cc4nccn4c(-c4cnn(C(CC#N)C5CCCC5)c4)n3)cc2)CC1` (single isomer, unassigned) [Example 112, 3-cyclopentyl-3-(4-(7-(4-(1-methylpiperidin-4-yl)phenyl)imidazo[1,2-c]pyrimidin-5-yl)-1H-pyrazol-1-yl)propanenitrile], for which the IC50 against JAK3 is 0.1 to 1 µM; against JAK1 it was 0.01 to 0.1 µM; at Human Tyk2 kinase domain it was under 0.01 µM; against JAK2, 0.01 to 0.1 µM.
As for `N#CCC(C1CCCC1)n1cc(-c2nc(-c3ccc(N4CCOCC4)cc3)cc3nccn23)cn1` (single isomer, unassigned) [Example 114, 3-cyclopentyl-3-(4-(7-(4-morpholinophenyl)imidazo[1,2-c]pyrimidin-5-yl)-1H-pyrazol-1-yl)propanenitrile], the IC50 at JAK3 was 0.1 to 1 µM; against JAK1 it was 0.1 to 1 µM; on Human Tyk2 kinase domain, under 0.01 µM; at JAK2, 0.01 to 0.1 µM.
Take `N#CCC(C1CCCC1)n1cc(-c2nc(-c3ccc(N4CCOCC4)cc3)cc3nccn23)cn1` (single isomer, unassigned) [Example 115, 3-cyclopentyl-3-(4-(7-(4-morpholinophenyl)imidazo[1,2-c]pyrimidin-5-yl)-1H-pyrazol-1-yl)propanenitrile]: the IC50 at JAK3 was 0.1 to 1 µM; on JAK1, under 0.01 µM; on Human Tyk2 kinase domain, under 0.01 µM; on JAK2, under 0.01 µM.
For `Cn1cc(-c2cc3nccn3c(-c3cnn(C(CC#N)C4CC4)c3)n2)cn1` (single isomer, unassigned; enantiomer 1) [Example 3, Enantiomer 1 of 3-cyclopropyl-3-(4-(7-(1-methyl-1H-pyrazol-4-yl)imidazo[1,2-c]pyrimidin-5-yl)-1H-pyrazol-1-yl)propanenitrile (Peak 1)], the IC50 fell in the range of 0.1 to 1 µM on JAK3, 0.1 to 1 µM on JAK1, 0.01 to 0.1 µM against Human Tyk2 kinase domain and 0.1 to 1 µM against JAK2.
Take `Cn1cc(-c2cc3nccn3c(-c3cnn(C(CC#N)C4CC4)c3)n2)cn1` (single isomer, unassigned; enantiomer 2) [Example 4, Enantiomer 2 of 3-cyclopropyl-3-(4-(7-(1-methyl-1H-pyrazol-4-yl)imidazo[1,2-c]pyrimidin-5-yl)-1H-pyrazol-1-yl)propanenitrile (Peak 2)]: the IC50 is 0.1 to 1 µM on JAK3, 0.01 to 0.1 µM on JAK1, under 0.01 µM on Human Tyk2 kinase domain and 0.01 to 0.1 µM against JAK2.
Regarding `Cn1cc(-c2cc3nccn3c(-c3cnn(C(CC#N)CC#N)c3)n2)cn1` [Example 1, 3-(4-(7-(1-methyl-1H-pyrazol-4-yl)imidazo[1,2-c]pyrimidin-5-yl)-1H-pyrazol-1-yl)pentanedinitrile], the IC50 on JAK3 was 0.1 to 1 µM; against JAK1, 0.01 to 0.1 µM; at Human Tyk2 kinase domain it was under 0.01 µM; against JAK2, 0.01 to 0.1 µM.
